Results as given in PubChem BioAssay AID330 (DTP/NCI, 2004).
“And” between values parts separate entries of the source, which are not always exact repeats. Equal values may be shown once. Toxic doses and inconclusive results are not listed. How the source made its calls: active means survival T/C of 150% or more; inactive means T/C below 125% in these data.

Tested on: P388 leukemia ip, CD2F1 mice, survival T/C
Assay: NCI In Vivo Anticancer Drug Screen. Data for tumor model P388 Leukemia (intraperitoneal) in CD2F1 (CDF1) mice
Settings: endpoint: median survival time, higher = longer survival
Outline: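 Mice carrying the transplanted tumor received test compound or vehicle. Survival was recorded in each group, and the value is the treated-group measurement divided by that of the vehicle-treated control group.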

[1] = dose: 12.5 mg/kg/injection, schedule: Q01DX009 (ip), vehicle: other
[2] = dose: 25.0 mg/kg/injection, schedule: Q01DX009 (ip), vehicle: other
[3] = dose: 50.0 mg/kg/injection, schedule: Q01DX009 (ip), vehicle: other
[4] = dose: 60.0 mg/kg/injection, schedule: Q01DX005 (ip), vehicle: saline with Tween-80
[5] = dose: 120.0 mg/kg/injection, schedule: Q01DX005 (ip), vehicle: saline with Tween-80
[6] = dose: 240.0 mg/kg/injection, schedule: Q01DX005 (ip), vehicle: saline with Tween-80
[7] = dose: 50.0 mg/kg/injection, schedule: Q01DX005 (ip), vehicle: Klucel (hydroxypropylcellulose) (HPC)
[8] = dose: 100.0 mg/kg/injection, schedule: Q01DX005 (ip), vehicle: Klucel (hydroxypropylcellulose) (HPC)
[9] = dose: 100.0 mg/kg/injection, schedule: Q01DX009 (ip), vehicle: saline with Tween-80
[10] = dose: 200.0 mg/kg/injection, schedule: Q01DX009 (ip), vehicle: saline with Tween-80
[11] = dose: 50.0 mg/kg/injection, schedule: Q01DX009 (ip), vehicle: saline
[12] = dose: 100.0 mg/kg/injection, schedule: Q01DX009 (ip), vehicle: saline
[13] = dose: 200.0 mg/kg/injection, schedule: Q01DX009 (ip), vehicle: saline
[14] = dose: 50.0 mg/kg/injection, schedule: Q01DX005 (ip), vehicle: saline with Tween-80
[15] = dose: 100.0 mg/kg/injection, schedule: Q01DX005 (ip), vehicle: saline with Tween-80
[16] = dose: 200.0 mg/kg/injection, schedule: Q01DX005 (ip), vehicle: saline with Tween-80
[17] = dose: 100.0 mg/kg/injection, schedule: Q04DX003 (ip), vehicle: saline
[18] = dose: 200.0 mg/kg/injection, schedule: Q04DX003 (ip), vehicle: saline
[19] = dose: 400.0 mg/kg/injection, schedule: Q04DX003 (ip), vehicle: saline

Measured: T/C

CC1(C)CC(C)(OC(=O)c2ccc(Cl)cc2)[N+]([O-])=N1 (stereo not given)
inactive: [1] 98 % of control | [2] 98 % of control | [3] 106 % of control | dose: 100.0 mg/kg/injection, schedule: Q01DX009 (ip), vehicle: other 89 % of control | dose: 200.0 mg/kg/injection, schedule: Q01DX009 (ip), vehicle: other 89 % of control

Nc1nc(=O)[nH]c([O-])c1N=O.Nc1nc(=O)[nH]c([O-])c1N=O.[Ag+].[Ag+]
inactive: dose: 15.0 mg/kg/injection, schedule: Q01DX005 (ip), vehicle: saline with Tween-80 104 % of control and 86 % of control | dose: 30.0 mg/kg/injection, schedule: Q01DX005 (ip), vehicle: saline with Tween-80 105 % of control and 89 % of control

Cc1nc2ccccc2nc1C1=C(O)c2ccccc2CC1=O
inactive: [4] 95 % of control | [5] 90 % of control | [6] 93 % of control

C1C2OC2C2C1C1CC2C2OC12 (stereo not given)
inactive: dose: 6.25 mg/kg/injection, schedule: Q01DX009 (ip), vehicle: Klucel (hydroxypropylcellulose) (HPC) 105 % of control | dose: 12.5 mg/kg/injection, schedule: Q01DX009 (ip), vehicle: Klucel (hydroxypropylcellulose) (HPC) 96 % of control | dose: 25.0 mg/kg/injection, schedule: Q01DX009 (ip), vehicle: Klucel (hydroxypropylcellulose) (HPC) 99 % of control

CCOC(=O)C(C)(NC(=O)c1ccccc1)C(=O)OCC
inactive: dose: 60.0 mg/kg/injection, schedule: Q01DX005 (ip), vehicle: saline 101 % of control and 105 % of control | dose: 120.0 mg/kg/injection, schedule: Q01DX005 (ip), vehicle: saline 109 % of control | dose: 240.0 mg/kg/injection, schedule: Q01DX005 (ip), vehicle: saline 100 % of control and 97 % of control

Nc1ccc(C(=O)c2cccs2)cn1
inactive: dose: 50.0 mg/kg/injection, schedule: Q01DX005 (ip), vehicle: distilled water + alcohol 98 % of control | dose: 100.0 mg/kg/injection, schedule: Q01DX005 (ip), vehicle: distilled water + alcohol 104 % of control

Cn1c(=O)oc2cc(NC(N)=O)c(Br)cc21
inactive: [7] 92 % of control | [8] 87 % of control

CCOC(=O)N1C(C)C2C=CC1C(S(=O)(=O)c1ccccc1)C2 (stereo not given)
inactive: [7] 97 % of control | [8] 102 % of control | dose: 200.0 mg/kg/injection, schedule: Q01DX005 (ip), vehicle: Klucel (hydroxypropylcellulose) (HPC) 97 % of control

CCCCCCCCCCCCOc1ccccc1
inactive: dose: 50.0 mg/kg/injection, schedule: Q01DX009 (ip), vehicle: saline with Tween-80 100 % of control | [9] 104 % of control | [10] 100 % of control

Cc1cc(C)n(-c2nnc(-n3nc(C)cc3C)c3ccccc23)n1
inactive: [11] 94 % of control | [12] 87 % of control

Cc1ccccc1C[P+](c1ccccc1)(c1ccccc1)c1ccccc1
inactive: dose: 0.62 mg/kg/injection, schedule: Q01DX009 (ip), vehicle: saline with Tween-80 95 % of control | dose: 1.25 mg/kg/injection, schedule: Q01DX009 (ip), vehicle: saline with Tween-80 100 % of control | dose: 2.5 mg/kg/injection, schedule: Q01DX009 (ip), vehicle: saline with Tween-80 104 % of control | dose: 5.0 mg/kg/injection, schedule: Q01DX009 (ip), vehicle: saline with Tween-80 117 % of control | dose: 5.0 mg/kg/injection, schedule: Q04DX003 (ip), vehicle: saline with Tween-80 100 % of control | dose: 10.0 mg/kg/injection, schedule: Q01DX009 (ip), vehicle: saline with Tween-80 95 % of control | dose: 10.0 mg/kg/injection, schedule: Q04DX003 (ip), vehicle: saline with Tween-80 87 % of control

NC(=S)c1ccc(N=Cc2ccco2)cc1
inactive: dose: 100.0 mg/kg/injection, schedule: Q01DX001 (ip), vehicle: Klucel (hydroxypropylcellulose) (HPC) 102 % of control | dose: 200.0 mg/kg/injection, schedule: Q01DX001 (ip), vehicle: Klucel (hydroxypropylcellulose) (HPC) 104 % of control | dose: 400.0 mg/kg/injection, schedule: Q01DX001 (ip), vehicle: Klucel (hydroxypropylcellulose) (HPC) 105 % of control

NC(=O)CCCNC(=O)CCC[c-]1[c-][c-][c-][c-]1.[Fe].[c-]1[c-][c-][cH-][c-]1
inactive: dose: 3.13 mg/kg/injection, schedule: Q01DX009 (ip), vehicle: other 102 % of control | dose: 6.25 mg/kg/injection, schedule: Q01DX009 (ip), vehicle: other 102 % of control | [1] 99 % of control and 96 % of control | [2] 123 % of control | [3] 111 % of control and 118 % of control

O=S(=O)(OC1CCC2CCC1O2)c1ccc(Br)cc1 (stereo not given)
inactive: [11] 86 % of control | [12] 100 % of control | [13] 100 % of control

Oc1cc(O)c2c(c1)OC(c1ccc(O)c(O)c1)C(O)C2O (stereo not given)
inactive: dose: 50.0 mg/kg/injection, schedule: Q01DX005 (ip), vehicle: saline + Tween-80 + alcohol 98 % of control | dose: 100.0 mg/kg/injection, schedule: Q01DX005 (ip), vehicle: saline + Tween-80 + alcohol 98 % of control | dose: 200.0 mg/kg/injection, schedule: Q01DX005 (ip), vehicle: saline + Tween-80 + alcohol 92 % of control

CCOC(=O)NOCOC
inactive: [11] 115 % of control | [12] 114 % of control | [13] 109 % of control

CNC(=O)OCc1c(COC(=O)NC)c(-c2ccc(C(F)(F)F)cc2)n(C)c1C
inactive: dose: 3.13 mg/kg/injection, schedule: Q01DX009 (ip), vehicle: distilled water + Tween-80 123 % of control | dose: 50.0 mg/kg/injection, schedule: Q01DX009 (ip), vehicle: distilled water + Tween-80 115 % of control

Nc1nc2ncc(CNc3ccc(C(=O)NC(CCC(=O)O)C(=O)O)cc3)cc2c(=O)[nH]1 (stereo not given)
inactive: [14] 100 % of control | [15] 117 % of control | [16] 102 % of control

Cn1c(=O)c2c(nc(Br)n2CC(=O)c2ccc([N+](=O)[O-])cc2)n(C)c1=O
inactive: [17] 95 % of control | [18] 96 % of control | [19] 99 % of control

CC(=O)Nc1cc(F)c2c(c1F)Cc1cc(F)ccc1-2
inactive: [9] 100 % of control | dose: 100.0 mg/kg/injection, schedule: Q04DX003 (ip), vehicle: saline with Tween-80 100 % of control | [10] 90 % of control | dose: 200.0 mg/kg/injection, schedule: Q04DX003 (ip), vehicle: saline with Tween-80 100 % of control | dose: 400.0 mg/kg/injection, schedule: Q04DX003 (ip), vehicle: saline with Tween-80 104 % of control

CCOC(=O)C(=CNC1CC(OC2C[C@](O)(C(C)=O)Cc3c(O)c4c(c(O)c32)C(=O)c2c(OC)cccc2C4=O)OC(C)C1O)C(=O)OCC (stereo not given in full)
inactive: dose: 6.25 mg/kg/injection, schedule: Q04DX003 (ip), vehicle: saline with Tween-80 95 % of control | dose: 12.5 mg/kg/injection, schedule: Q04DX003 (ip), vehicle: saline with Tween-80 100 % of control | dose: 25.0 mg/kg/injection, schedule: Q04DX003 (ip), vehicle: saline with Tween-80 104 % of control | dose: 50.0 mg/kg/injection, schedule: Q04DX003 (ip), vehicle: saline with Tween-80 108 % of control

O=[N+]([O-])c1ccc(Nc2ccccc2)c2nonc12
inactive: [4] 110 % of control | [5] 97 % of control | [6] 94 % of control

CC(C)(CCC(C)(C)NC(=O)C12CC3CC(CC(C3)C1)C2)NC(=O)C12CC3CC(CC(C3)C1)C2
inactive: [14] 90 % of control | [15] 97 % of control | [16] 97 % of control

Cc1cnc(C(N)=O)c(=O)[nH]1
inactive: [12] 95 % of control | [17] 105 % of control | [13] 100 % of control | [18] 100 % of control | dose: 400.0 mg/kg/injection, schedule: Q01DX009 (ip), vehicle: saline 100 % of control | [19] 100 % of control

CC(O)C1/C=C/C=C\C(=O)O[C@@H]2C[C@H]3OC4C5OC5(C)CCC4(COC(=O)C4O[C@@]4(C)CCO1)[C@]2(C)[C@]31CO1 (stereo not given in full)
inactive: dose: 1.25 mg/kg/injection, schedule: Q01DX009 (ip), vehicle: Klucel (hydroxypropylcellulose) (HPC) 104 % of control | dose: 2.5 mg/kg/injection, schedule: Q01DX009 (ip), vehicle: Klucel (hydroxypropylcellulose) (HPC) 113 % of control | dose: 5.0 mg/kg/injection, schedule: Q01DX009 (ip), vehicle: Klucel (hydroxypropylcellulose) (HPC) 118 % of control | dose: 10.0 mg/kg/injection, schedule: Q01DX009 (ip), vehicle: Klucel (hydroxypropylcellulose) (HPC) 122 % of control
